Measurements taken from ChEMBL document CHEMBL3507680, “University of Dundee, Gates Library screen for HepG2 cell viability”.

assay: Human HepG2 cell viability assay in 384 well format; format: toxicity, cell-based; parameters: dose 125 nL, time 70.5 hour; concentration not given beside the values; conditions: HepG2 cells, read-out: Inhibition

| Structure (SMILES) | cytotoxicity at 70.5 h |
| --- | --- |
| Cc1cc(NC(=O)CN2CCCC2c2noc(C3CC3)n2)n(C)n1 (configuration not stated) | -10.4% |
| Cc1ccccc1C(C)NC(=O)CN1CCN(Cc2ccc(Br)s2)CC1 (configuration not stated) | 18.7% |
| O=C(N1CCOCC1)[C@@]12CCO[C@@H]1CCN(C1CCCCC1)C2 | 47.3% |
| Cc1cc(C)c(CNC(=O)C2CCN(c3cnccn3)CC2)c(=O)[nH]1 | -3.48% |
| Cc1cccnc1CN1CCC(c2nnc(Cn3cccn3)n2C)CC1 | -7.96% |
| CN(CCCOc1ccc(F)cc1)S(=O)(=O)c1cnn(C)c1 | -8.61% |
| Cc1cccc(CC(=O)Nc2cccnc2N2CCC(CO)CC2)c1 | -2.43% |
| CO[C@H]1C[C@@H](O)C12CCN(CCCOc1ccc(C(N)=O)cc1)CC2 | -2.22% |
| Cc1cc(C)c(C(=O)NC2CCN(c3ncccc3C#N)CC2)c(=O)[nH]1 | -11.1% |
| Cc1ccc(-c2nc(CSCCC(=O)NC(N)=O)co2)c(C)c1 | 22% |
| O=C(COc1cccc(Br)c1)N1CCOCC1c1ncon1 (configuration not stated) | -3.27% |
| COc1ccc(S(=O)(=O)NC(=O)C(C)OC)c(OC)c1 (configuration not stated) | -2.74% |
| Cn1ccc(C(=O)N2C[C@@H]3CN(CC4CC4)CCO[C@@H]3C2)n1 | 11.6% |
| c1coc(-c2nc(CN3CCOC(Cn4cccn4)C3)cs2)c1 (configuration not stated) | 29.1% |
| Cc1cccc(OCCCNC(=O)Cn2ccc(C)cc2=O)c1 | -6.82% |
| CN1CCOC(CNCc2coc(-c3cccc(F)c3)n2)C1 (configuration not stated) | 36.2% |
| Cn1ccnc1C(O)(CCNCc1ccc(Cl)o1)C(F)(F)F (configuration not stated) | -14.8% |
| Cc1nc(CN2CCC(C(=O)O)(n3ccc(-c4ccco4)n3)CC2)co1 | -7.1% |
| CNS(=O)(=O)CCCN1CCN(C(C#N)c2ccccc2)CC1 (configuration not stated) | -11.2% |
| COCCOCC(=O)Nc1ccccc1F | -6.23% |
| CC[C@H](C)[C@H](N)C(=O)Nc1nc(-c2cnc(N3CCOCC3)nc2)cs1 | -1.59% |
| O=C(NCc1cc[nH]n1)NCC(c1ccccc1Cl)N1CCCC1 (configuration not stated) | -14.6% |
| Cc1ccc(C(=O)N2CCN(Cc3cccs3)CC2)n1C | -14.9% |

| Structure (SMILES) | cytotoxicity at 70.5 h |
| --- | --- |
| CC(C)CN1CCn2c(COCc3cccnc3)nnc2C1 | -4.01% |
| Cc1ccc(C(CNCc2ncc[nH]2)N2CCOCC2)s1 (configuration not stated) | -12.7% |
| Cc1ccc(S(=O)(=O)N2CC[C@@H]3C[C@H](NC(=O)c4n[nH]cc4Cl)[C@@H]32)cc1 | -1.23% |
| CCCNC(=O)CCNc1cncc(-n2nc(C)cc2C)n1 | -4.63% |
| CNC(=O)c1cc(C2CCCNC2)n[nH]1 (configuration not stated) | 21.1% |
| CCN1C(=O)[C@]2(CC[C@@H]3CN(C(=O)Nc4ccc(F)cc4)C[C@@H]32)N=C1C | -77.4% |
| O=C(c1ncoc1C1CCCO1)N1CC2(CCCC2)c2ccccc21 (configuration not stated) | -6.29% |
| Cc1cccc(I)c1C(=O)NCc1ncc[nH]1 | -10.8% |
| Cc1cc(Nc2ccc3c(c2)CC(=O)N3)nc(C(C)C)n1 | -6.82% |
| O=C1NCCO[C@H]2CN(C(=O)Cc3ccco3)CC[C@@H]12 | -5.72% |
| O=C(NCCc1nnc2n1CCC2)NCC1(c2ccccc2F)CC1 | -6.03% |
| CN(CC1CCCN(S(C)(=O)=O)C1)c1cnn(C)c1 (configuration not stated) | 18.9% |
| CCOCCC1(CNC(=O)c2ccsc2)CCC1 | -5.98% |
| CNC(=O)[C@@]12CCC3(CCN(S(C)(=O)=O)CC3)[C@@H]1CN(C(C)=O)C2 | -0.353% |
| CCCn1nnnc1CN(c1ccc(C)cc1)C(C)C | -5.93% |
| CC(C)c1nn(C)c(N(C)C)c1CNC1CCC(O)CC1 (configuration not stated) | -6.96% |
| O=C([C@H]1COC[C@H]2CN(CC3CCC3)C[C@H]21)N1CCOCC1 | -6.01% |
| OCCN1CCc2[nH]nc(C(c3ccccc3)c3ccccc3)c2C1 | -7.95% |
| Cc1cc2cc(NC(=O)Cn3ncc(N4CCCC4)cc3=O)ccc2o1 | 15.3% |
| Fc1ccccc1CN1CCC[C@@H](Cn2nnc(-c3cccs3)n2)C1 | -3.35% |
| CNc1cc(CNC(=O)c2ccccc2OC)nc(-c2ccncc2)n1 | 12.5% |
| CCc1nc(Cn2c(=O)n(C)c3ccccc32)no1 | -6.86% |
| C[C@H]1C[C@@H]2CCN(Cc3ccco3)C[C@H]2O1 | -7.2% |

| Structure (SMILES) | cytotoxicity at 70.5 h |
| --- | --- |
| CC(O)Cc1cn(CC2CCN(C3CCSCC3)CC2)nn1 (configuration not stated) | -4.31% |
| Cc1nn(C)c(C)c1CNC(=O)c1cc(NC(=O)C2CC2)n(C)n1 | -7.51% |
| c1ccc(CO[C@H]2CO[C@@]3(CCN(Cc4ccoc4)C3)C2)nc1 | -18.7% |
| O=C(NCC1CCCCC1)N1C[C@H]2C[C@H](C(=O)N3CCOCC3)[C@@H](C1)O2 | 24.6% |
| CCS(=O)(=O)CCNC(=O)c1cc2n(n1)CCCO2 | -5.74% |
| CC(NC(=O)CCCOc1ccc(F)cc1)c1nnc2n1CCC2 (configuration not stated) | -1.76% |
| CNc1cc(C2CCN2c2ncccn2)nc(C)n1 (configuration not stated) | -6.05% |
| COCCN1CCOCC12CCN(C(=O)c1ccncc1)CC2 | -9.1% |
| CC(C)COc1cncc(NC(CO)c2ccco2)n1 (configuration not stated) | 11.4% |
| Cc1cc(C)n(C2CN(c3ncnc4c3CCC4)C2)n1 | -10.3% |
| O=C1CC(c2ccc(C(=O)O)cc2)c2ncn(-c3cccnc3)c2N1 (configuration not stated) | -2.41% |
| CN(C)C(=O)CN1CCC2(CC1)C[C@@H](O)[C@H](c1ccccc1)NC2=O | -8.01% |
| COC(=O)N1CCC(Nc2ccc(Cl)c(C#N)n2)C1 (configuration not stated) | -2.14% |
| Cc1cc(C)n(C2CN(CC(O)c3ccc4c(c3)OCO4)C2)n1 (configuration not stated) | -2.16% |
| CCc1csc(C2CCCN(C(=O)c3ccncc3)C2)n1 (configuration not stated) | -5.33% |
| CC(C)OCc1nn(CC2CC2)c2c1CN(Cc1ccco1)CC2 | -1.8% |
| CC(C)NC(=O)c1nn(C)c(NC(=O)Cc2ccccc2)c1F | -11.4% |
| Cn1cc(CN2CCCC3(CCN(Cc4ccncc4)C3=O)C2)cn1 (configuration not stated) | -10.1% |
| CN(C)c1nc2c(c(N(C)C)n1)CCN(C(=O)CN1CCC(O)CC1)C2 | -7.75% |
| CCC(CC)c1cc(CNC(=O)N2CCCN(C(C)=O)CC2)on1 | -3.25% |
| O=C(NCCOC1CCCC1)c1ccc(-c2ccco2)[nH]c1=O | -2.19% |
| O=C(CCc1cc(O)no1)N1CCCC(OCc2cccnc2)C1 (configuration not stated) | -10.1% |
| N[C@@H]1CCN(Cc2ccc(-c3nc(-c4cccnc4)cc(=O)[nH]3)cc2)C1 | -10.8% |

| Structure (SMILES) | cytotoxicity at 70.5 h |
| --- | --- |
| Cc1ccc2cc(C(=O)N3CCN(C(=O)c4ccoc4)CC3)[nH]c2c1 | 8.19% |
| CN(c1ccc(C(=O)NCCCN2CCCC2)c(Cl)c1)S(C)(=O)=O | 17.4% |
| COc1ccccc1CN(C)C(=O)NCc1c(C)cc(C)[nH]c1=O | -0.543% |
| FC1(F)CCNCC12CCN(c1ccccn1)C2 (configuration not stated) | 9.9% |
| CCc1nnc(CN2CCC3(CC2)Nc2ccccc2NC3=O)o1 | 19.8% |
| c1cncc(OCCNC2Cc3ccccc3C2)c1 | -14.1% |
| CCc1cc(C(=O)NCC2CCN(Cc3cccc(C)n3)C2)on1 (configuration not stated) | -1.06% |
| O=C(CC1COCCN1)NCCc1noc(-c2ccccc2)n1 (configuration not stated) | -2.33% |
| CC(C)n1ncc2c1NC(=O)CC21C(=O)Nc2c(Cl)cc(Cl)cc21 (configuration not stated) | -8.73% |
| CCc1ccc(C(=O)N(CC)Cc2ccoc2)cc1S(C)(=O)=O | -13.3% |
| Cc1ccc2[nH]c(CNC(=O)C3CC4(CCNCC4)CN3C)nc2c1C (configuration not stated) | 50.4% |
| c1nc(N2CCOC(Cn3cncn3)C2)c2cc[nH]c2n1 (configuration not stated) | -6.11% |
| Cn1ncc(NCc2cc(F)cc(F)c2)c(Cl)c1=O | -7.18% |
| CN(C)[C@H]1CN(C(=O)c2ccc3sc4c(c3c2)CCNC4=O)C[C@@H]1O | -1.45% |
| CN(C)S(=O)(=O)N1C[C@H]2C[C@H](C(=O)NCc3ccccc3)[C@@H](C1)O2 | -12.2% |
| O=C(NC1CCc2nccn2C1)c1ccc(NC2CC2)nc1 (configuration not stated) | -12% |
| Cc1ccc2nc(C(=O)N3C[C@@H](C(=O)O)[C@H](c4ccccc4)C3)cn2c1 | -8.12% |
| CCOC1CC2(CCN(Cc3nccn3C)CC2)C1 | -0.734% |
| Cc1nnc(NCCC(=O)NCc2ccccc2)c(C#N)c1C | -9.42% |
| CNS(=O)(=O)c1ccc(CN2CCCC2c2ccc(F)cc2)cc1 (configuration not stated) | -5.9% |
| Cc1nc(C)c(C(=O)N2CCCC(c3cnccn3)C2)s1 (configuration not stated) | -2.44% |
| CO[C@@H]1CCN(c2nnc(C)s2)C[C@@H]1Cc1cccc(C)c1 | -0.0343% |
| CNc1cc(C2CN(CC(=O)N(C)C)CCO2)nc(C)n1 (configuration not stated) | -5.66% |

| Structure (SMILES) | cytotoxicity at 70.5 h |
| --- | --- |
| COCCN1CCC(c2nc3ccc(-c4ccccc4)cn3n2)CC1 | 1.72% |
| CC(C)N1CCC(c2ccnc3c(C(=O)N4CCCC4)ncn23)CC1 | -3.82% |
| Cc1ncc2c(n1)CN(CC(=O)NCCOc1ccccc1)CC2 | -11.5% |
| Cn1cc(CN2CC[C@@H]3[C@@H]2CCN3C(=O)Cc2cccc(F)c2)cn1 | -4.59% |
| Cc1cnc(C(=O)N2CCC(COCc3ccccc3)C2)cn1 (configuration not stated) | -2.03% |
| Cc1nc(C(C)C)sc1C(=O)N1CCN(C2CCSCC2)CC1 | 9.03% |
| CCc1[nH]c(C2(N)CCCCC2)nc(=O)c1C | -4.64% |
| CCOCCCNC(=O)C(NC(=O)Cc1cccs1)c1ccc(C)cc1 (configuration not stated) | -2.89% |
| CCOc1ccc(Br)cc1-c1cc(N)[nH]n1 | -6.54% |
| CCOc1cccc(CNc2cnn(CC(C)C)c2CC)c1 | -7.62% |
| NCC(=O)N1CCCC1c1n[nH]cc1-c1ccccc1F (configuration not stated) | 25.4% |
| CN(C)C(=O)CCCNC(=O)C(c1cccc(F)c1)N(C)C (configuration not stated) | 3.05% |
| COc1ccc(CN(C)[C@@H]2COC[C@H]2c2ccc(F)cc2)c(OC)c1 | 0.309% |
| Clc1cnccc1NCc1cccc(COC2CCOCC2)c1 | -0.494% |
| CN(C)CC1(O)CCCN(C(=O)c2cnc(-c3ccccn3)nc2)C1 (configuration not stated) | -3.36% |
| CCOc1cc(NC(=O)N2CCOC3(CCC3)C2)ccc1C | -5.84% |
| CCC(C(=O)NC1CCCC1)n1ccc2ncccc2c1=O (configuration not stated) | -16.4% |
| CCC(=O)N1CCC(c2nc(N3CCOCC3)ncc2S(C)(=O)=O)CC1 | -9.6% |
| Cc1nccn1CCCC(=O)N1CCN(c2cccnc2)CC1 | 4.06% |
| c1csc(-c2nc(CN3CCOC(Cn4cncn4)C3)co2)c1 (configuration not stated) | -0.51% |
